pIC50: −log10 of the molar value.
Key:
FLT-3 = biological target: T1, FLT-3 (Homo sapiens, UniProt P36888); experiment: radioisotope-based P81 filter-binding assay, FLT-3 kinase; format: biochemical; details: for pIC50: averaged from two independent dose-response curves, read-out: Enzyme assay IC50 FLT-3; for inhibition at 1 µM: compound at 1.0 μM, mean values (n=2), read-out: percent inhibition of enzyme catalytic activity, FLT-3 (numbers in parentheses)
T1 sequence (P36888 27-993): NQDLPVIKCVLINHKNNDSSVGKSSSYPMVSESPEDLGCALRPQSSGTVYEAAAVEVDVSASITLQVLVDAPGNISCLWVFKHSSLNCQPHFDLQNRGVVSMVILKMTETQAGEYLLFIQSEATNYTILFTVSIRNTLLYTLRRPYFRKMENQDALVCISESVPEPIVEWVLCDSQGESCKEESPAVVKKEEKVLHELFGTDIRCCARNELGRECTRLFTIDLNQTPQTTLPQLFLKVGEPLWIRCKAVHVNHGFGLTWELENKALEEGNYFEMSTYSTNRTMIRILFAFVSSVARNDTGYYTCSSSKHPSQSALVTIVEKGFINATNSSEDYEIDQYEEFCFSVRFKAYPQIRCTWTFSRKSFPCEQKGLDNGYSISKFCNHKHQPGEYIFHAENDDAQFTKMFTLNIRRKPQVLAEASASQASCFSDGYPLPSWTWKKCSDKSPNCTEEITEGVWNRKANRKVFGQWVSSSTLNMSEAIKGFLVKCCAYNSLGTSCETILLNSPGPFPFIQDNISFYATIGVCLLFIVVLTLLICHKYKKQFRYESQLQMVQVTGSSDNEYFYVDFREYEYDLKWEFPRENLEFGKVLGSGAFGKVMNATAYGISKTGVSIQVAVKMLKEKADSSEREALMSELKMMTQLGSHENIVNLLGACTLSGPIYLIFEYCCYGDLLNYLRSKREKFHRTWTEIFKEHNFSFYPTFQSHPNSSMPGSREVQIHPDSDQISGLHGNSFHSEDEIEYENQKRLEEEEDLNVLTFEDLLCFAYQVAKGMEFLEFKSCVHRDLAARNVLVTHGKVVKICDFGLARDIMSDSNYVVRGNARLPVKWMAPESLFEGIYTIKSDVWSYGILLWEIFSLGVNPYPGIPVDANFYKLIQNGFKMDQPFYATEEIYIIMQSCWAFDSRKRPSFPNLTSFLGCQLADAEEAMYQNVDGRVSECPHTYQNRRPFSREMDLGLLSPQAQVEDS
Description: (§1) Compounds of formula (I)-(IV) were evaluated for abilities in inhibiting protein kinases aurora B and FLT-3 activity using radioisotope-based P81 filter-binding assay (Table 1).

aurora B = aurora B (Homo sapiens, UniProt Q96GD4); experiment: radioisotope-based P81 filter-binding assay, aurora B kinase; format: biochemical; details: for pIC50: averaged from two independent dose-response curves, read-out: Enzyme assay IC50 Aur B; for inhibition at 1 µM: compound at 1.0 μM, mean values (n=2), read-out: percent inhibition of enzyme catalytic activity, Aur B (numbers in parentheses)
aurora B, sequence (Q96GD4 whole entry): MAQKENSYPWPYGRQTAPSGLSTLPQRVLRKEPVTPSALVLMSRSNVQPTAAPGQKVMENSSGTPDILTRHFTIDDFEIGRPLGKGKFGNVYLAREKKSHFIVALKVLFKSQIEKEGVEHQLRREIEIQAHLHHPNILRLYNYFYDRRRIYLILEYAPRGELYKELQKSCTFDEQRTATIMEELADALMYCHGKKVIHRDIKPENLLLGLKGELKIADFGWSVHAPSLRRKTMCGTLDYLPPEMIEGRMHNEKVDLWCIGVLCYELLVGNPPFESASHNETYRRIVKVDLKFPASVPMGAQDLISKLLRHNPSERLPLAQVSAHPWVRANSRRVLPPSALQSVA
Description: as §1

SMILES	pIC50 (FLT-3)	melting point	pIC50 (aurora B)	inhibition at 1 µM (FLT-3) [%]	inhibition at 1 µM (aurora B) [%]
COc1cc(OC)cc(C(=O)NC(=O)Nc2ccc3c(c2)NC(=O)/C3=C\c2[nH]c(C)c(C(=O)O)c2C)c1 [D42, (Z)-5-((6-(3-(3,5-dimethoxybenzoyl)ureido)-2-oxoindolin-3-ylidene)methyl)-2,4-dimethyl-1H-pyrrole-3-carboxylic acid]	6.94	> 300 °C	8.68		
O=C1Nc2cc(NC(=O)N3CCN(c4cccc(Cl)c4)C3=O)ccc2/C1=C/c1ccc[nH]1 [D85, (Z)—N-(3-((1H-pyrrol-2-yl)methylene)-2-oxoindolin-6-yl)-3-(3-chlorophenyl)-2-oxoimidazolidine-1-carboxamide]	5.75	> 300 °C	7.84		
Cc1[nH]c(/C=C2\C(=O)Nc3cc(NC(=O)c4cccn(C)c4=O)ccc32)c(C)c1C(=O)O [D124, (Z)-2,4-dimethyl-5-((6-(1-methyl-2-oxo-1,2-dihydropyridine-3-carboxamido)-2-oxoindolin-3-ylidene)methyl)-1H-pyrrole-3-carboxylic acid]	8.38	> 300 °C	7.84		
COc1ccc(C(=O)NC(=O)Nc2ccc3c(c2)NC(=O)/C3=C\c2ccccn2)cc1 [D20, (Z)-4-methoxy-N-(2-oxo-3-(pyridin-2-ylmethylene)indolin-6-ylcarbamoyl)benzamide]	< 6.00	268 to 273 °C (dec.)			28.7
O=C1Nc2cc(NC(=O)N3CCN(C4CC4)C3=O)c(F)cc2/C1=C/c1ccc[nH]1 [D82, (Z)—N-(3-((1H-pyrrol-2-yl)methylene)-5-fluoro-2-oxoindolin-6-yl)-3-cyclopropyl-2-oxoimidazolidine-1-carboxamide]	5.48	> 300 °C	7.97		
COc1ccc(C(=O)NC(=O)Nc2ccc3c(c2)NC(=O)/C3=C\c2[nH]c(C)c(CCC(=O)N3CCN(C)CC3)c2C)c(F)c1 [D65, (Z)—N-(3-((3,5-dimethyl-4-(3-(4-methylpiperazin-1-yl)-3-oxopropyl)-1H-pyrrol-2-yl)methylene)-2-oxoindolin-6-ylcarbomoyl)-2-fluoro-4-methoxybenzamide]	7.38	229 to 234 °C (dec.)	7.74		
COc1ccc(N2CCN(C(=O)Nc3ccc4c(c3)NC(=O)/C4=C\c3ccc[nH]3)C2=O)cc1 [D91, (Z)—N-(3-((1H-pyrrol-2-yl)methylene)-2-oxoindolin-6-yl)-3-(4-methoxyphenyl)-2-oxoimidazolidine-1-carboxamide]		294 to 299 °C (dec.)		26	25.3
Cc1[nH]c(/C=C2\C(=O)Nc3cc(NC(=O)NC(=O)c4ccc(C(F)(F)F)cc4)ccc32)c(C)c1C(=O)O [D35, (Z)-2,4-dimethyl-5-((2-oxo-6-(3-(4-(trifluoromethyl)benzoyl)ureido)indolin-3-ylidene)methyl)-1H-pyrrole-3-carboxylic acid]	6.64	> 300 °C	8.51		
O=C1Nc2cccc(NC(=O)c3cccn(-c4ccc(F)cc4)c3=O)c2/C1=C/c1ccc[nH]1 [D103, (Z)—N-(3-((1H-pyrrol-2-yl)methylene)-2-oxoindolin-4-yl)-1-(4-fluorophenyl)-2-oxo-1,2-dihydropyridine-3-carboxamide]	< 6.00	> 300 °C	< 6.00		
COc1ccc(C(=O)NC(=O)Nc2ccc3c(c2)NC(=O)/C3=C\c2ccncc2)cc1 [D21, (Z)-4-methoxy-N-(2-oxo-3-(pyridin-4-ylmethylene)indolin-6-ylcarbamoyl)benzamide]		270 to 275 °C (dec.)		3.6	7
COc1ccc(N2CCN(C(=O)Nc3ccc4c(c3)NC(=O)/C4=C\c3[nH]c(C)c(C(=O)O)c3C)C2=O)cc1 [D95, (Z)-5-((6-(3-(4-methoxyphenyl)-2-oxoimidazolidine-1-carboxamido)-2-oxoindolin-3-ylidene)methyl)-2,4-dimethyl-1H-pyrrole-3-carboxylic acid]	7.40	267 to 272 °C (dec.)	8.43		
Cc1[nH]c(/C=C2\C(=O)Nc3cc(NC(=O)NC(=O)c4ccc(Cl)c(Cl)c4)ccc32)c(C)c1C(=O)O [D34, (Z)-5-((6-(3-(3,4-dichlorobenzoyl)ureido)-2-oxoindolin-3-ylidene)methyl)-2,4-dimethyl-1H-pyrrole-3-carboxylic acid]	7.27	295 to 300 °C (dec.)	8.68		

Now from value to compound:

pIC50 (FLT-3)	melting point	pIC50 (aurora B)	inhibition at 1 µM (FLT-3) [%]	inhibition at 1 µM (aurora B) [%]	SMILES
< 6.00	> 300 °C	< 6.00			O=C1Nc2ccc(NC(=O)c3cccn(-c4ccc(F)cc4)c3=O)cc2/C1=C/c1ccc[nH]1 [D104, (Z)—N-(3-((1H-pyrrol-2-yl)methylene)-2-oxoindolin-5-yl)-1-(4-fluorophenyl)-2-oxo-1,2-dihydropyridine-3-carboxamide]
	277 to 282 °C (dec.)		34.4	61.2	COc1ccc(C(=O)NC(=O)Nc2ccc3c(c2)NC(=O)/C3=C/c2ccccc2)cc1 [D17, (E)-N-(3-benzylidene-2-oxoindolin-6-ylcarbamoyl)-4-methoxybenzamide]
6.44	294 to 299 °C (dec.)	7.76			O=C1Nc2cc(NC(=O)N3CCN(c4ccccc4)C3=O)ccc2/C1=C/c1ccc[nH]1 [D83, (Z)—N-(3-((1H-pyrrol-2-yl)methylene)-2-oxoindolin-6-yl)-2-oxo-3-phenylimidazolidine-1-carboxamide]
6.21	298 °C (dec.)	7.49			O=C1Nc2cc(NC(=O)c3cccn(CCO)c3=O)ccc2/C1=C/c1ccc[nH]1 [D117, (Z)—N-(3-((1H-pyrrol-2-yl)methylene)-2-oxoindolin-6-yl)-1-(2-hydroxyethyl)-2-oxo-1,2-dihydropyridine-3-carboxamide]
6.29	> 300 °C	6.99			Cn1cccc(C(=O)Nc2ccc3c(c2)NC(=O)/C3=C\c2ccc[nH]2)c1=O [D116, (Z)—N-(3-((1H-pyrrol-2-yl)methylene)-2-oxoindolin-6-yl)-1-methyl-2-oxo-1,2-dihydropyridine-3-carboxamide]
< 6.00	276 to 281 °C (dec.)	8.19			O=C(NC(=O)c1ccccc1F)Nc1ccc2c(c1)NC(=O)/C2=C\c1ccc[nH]1 [D52, (Z)—N-(3-((1H-pyrrol-2-yl)methylene)-2-oxoindolin-6-ylcarbamoyl)-2-fluorobenzamide]
	278 to 283 °C (dec.)		15.4	44	COc1ccc(C(=O)NC(=O)Nc2ccc3c(c2)NC(=O)C3=Cc2ccco2)cc1 (stereo in doubt) [D23, (E)-N-(3-(furan-2-ylmethylene)-2-oxoindolin-6-ylcarbamoyl)-4-methoxybenzamide]
7.19	> 300 °C	7.53			Cc1c[nH]cc(C(=O)Nc2ccc3c(c2)NC(=O)/C3=C\c2ccc[nH]2)c1=O [D139, (Z)—N-(3-((1H-pyrrol-2-yl)methylene)-2-oxoindolin-6-yl)-5-methyl-4-oxo-1,4-dihydropyridine-3-carboxamide]
